# Laboratory results reported in US20100331305A1, “OXO-HETEROCYCLE FUSED PYRIMIDINE COMPOUNDS, COMPOSITIONS AND METHODS OF USE” (Genentech, Inc., priority 2009, published 2010).
# Molecular target: mTOR enzyme (mTOR(1360-2549)+GBL) (Homo sapiens, UniProt P42345)
# Experiment: In vitro mTOR kinase assay (TR-FRET)
# Type: biochemical
# Conditions: 0.25 nM mTOR+GBL, 8 uM ATP; values tied to compounds by order of Table 1; 'x or y' = two alternative values for separated diastereomers of unassigned stereochemistry; read-out: activity level (Ki) in the mTOR kinase assay
# Source text: a. In Vitro mTOR Kinase Assay
# The reaction is stopped by an addition of a Terbium-labeled phospho-specific antibody, e.g., Tb-labeled anti-p4E-BP1 T37/T46, (Invitrogen, product #PR8835A), EDTA, and TR-FRET buffer solution (Invitrogen, Product #PR3756B). Product formation is detected by way of time-resolved fluorescence resonance energy transfer (TR-FRET), which occurs when the phosphorylated substrate and labeled antibody are in close proximity due to phospho-specific binding. Enzymatic activity is measured as an increase in TR-FRET signal using a Perkin Elmer Envision plate reader.
# Compound activity is tested in 10 point dose curves starting at the highest final concentration of 10 uM. They are serially diluted in 100% DMSO prior to further dilution with assay buffer. […] 8 μL of solution containing 2 nM Tb-anti-p4E-BP1 antibody & 10 mM EDTA diluted TR-FRET buffer is then added and incubated for 30 minutes to stop the reaction. The plate is scanned with the Envision plate reader. Ki values are calculated in Assay Explorer using the Morrison ATP-competitive tight binding equation for Ki apparent determination.
# Chain of mTOR enzyme (mTOR(1360-2549)+GBL) (P42345 1360-2549, species assumed): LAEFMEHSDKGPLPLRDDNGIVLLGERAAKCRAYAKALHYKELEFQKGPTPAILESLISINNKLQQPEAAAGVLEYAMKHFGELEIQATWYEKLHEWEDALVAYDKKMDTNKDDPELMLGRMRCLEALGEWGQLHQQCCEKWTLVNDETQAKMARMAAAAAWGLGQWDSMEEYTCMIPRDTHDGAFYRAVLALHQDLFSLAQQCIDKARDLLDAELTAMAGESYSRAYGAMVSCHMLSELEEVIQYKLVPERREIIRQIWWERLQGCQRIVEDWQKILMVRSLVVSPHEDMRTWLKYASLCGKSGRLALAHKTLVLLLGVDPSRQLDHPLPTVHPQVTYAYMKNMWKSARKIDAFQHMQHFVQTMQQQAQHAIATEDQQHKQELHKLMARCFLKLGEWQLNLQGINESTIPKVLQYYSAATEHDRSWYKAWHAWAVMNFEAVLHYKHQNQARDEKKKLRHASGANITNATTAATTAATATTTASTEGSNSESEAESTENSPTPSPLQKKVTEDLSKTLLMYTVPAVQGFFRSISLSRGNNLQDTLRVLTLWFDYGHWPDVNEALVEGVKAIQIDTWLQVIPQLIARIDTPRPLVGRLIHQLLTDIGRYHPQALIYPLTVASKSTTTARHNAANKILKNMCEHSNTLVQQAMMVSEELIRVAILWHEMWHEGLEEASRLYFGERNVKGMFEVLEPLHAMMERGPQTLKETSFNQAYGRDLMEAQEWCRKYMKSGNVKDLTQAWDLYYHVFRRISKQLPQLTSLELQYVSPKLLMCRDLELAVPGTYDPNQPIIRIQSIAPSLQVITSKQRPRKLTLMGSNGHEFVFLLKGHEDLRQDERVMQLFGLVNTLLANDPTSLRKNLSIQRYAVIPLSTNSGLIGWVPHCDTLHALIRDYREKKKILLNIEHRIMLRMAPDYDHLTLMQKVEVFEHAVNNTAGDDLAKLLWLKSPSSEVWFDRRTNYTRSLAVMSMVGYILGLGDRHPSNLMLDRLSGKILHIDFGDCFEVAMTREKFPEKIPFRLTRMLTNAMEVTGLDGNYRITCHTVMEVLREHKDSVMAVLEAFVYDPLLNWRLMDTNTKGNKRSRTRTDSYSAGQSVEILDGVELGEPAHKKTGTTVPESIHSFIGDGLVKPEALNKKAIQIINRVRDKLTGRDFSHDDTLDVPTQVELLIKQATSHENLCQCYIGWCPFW
# Chain of mTOR enzyme (mTOR(1360-2549)+GBL) (Q9BVC4 whole entry partner, species assumed): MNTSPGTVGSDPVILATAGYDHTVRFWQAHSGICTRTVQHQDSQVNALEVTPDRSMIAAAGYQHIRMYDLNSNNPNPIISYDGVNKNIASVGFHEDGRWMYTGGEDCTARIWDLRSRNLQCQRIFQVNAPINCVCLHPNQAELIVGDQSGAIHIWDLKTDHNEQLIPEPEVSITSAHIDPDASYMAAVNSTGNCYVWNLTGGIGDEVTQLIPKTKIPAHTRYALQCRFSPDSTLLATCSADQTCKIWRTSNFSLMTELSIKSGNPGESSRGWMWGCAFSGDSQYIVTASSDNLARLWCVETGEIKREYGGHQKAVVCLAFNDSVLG
row,Structure (SMILES),Ki [nM]
1,"Nc1ncc(-c2nc3c(c(N4[C@@H]5CC[C@H]4COC5)n2)CCCO3)cn1 [Example 133, 5-(4-((1R,5S)-3-oxa-8-azabicyclo[3.2.1]octan-8-yl)-6,7-dihydro-5H-pyrano[2,3-d]pyrimidin-2-yl)pyrimidin-2-amine]",97

# Tested on: PC3 cells
# Experiment: In vitro cell proliferation assay
# Type: cell-based, human
# Conditions: Homo sapiens, PC-3, with PC3 cells; values tied to compounds by order of Table 1
# Description: c. In Vitro Cell Proliferation Assay Efficacy of Formula I compounds were measured by a cell proliferation assay employing the following protocol: 1. An aliquot of 20 μl of cell culture containing about 10^3 cells (PC3 or MDAMB361.1) in medium was deposited in each well of a 384-well, opaque-walled plate. 2. Control wells were prepared containing medium and without cells; Cells were allowed to settle overnight. 3. The compound was added to the experimental wells and incubated for 3 days. 4. The plates were equilibrated to room temperature for approximately 30 minutes. 5. A volume of CellTiter-Glo Reagent equal to the volume of cell culture medium present in each well was added. […] The contents were mixed for 2 minutes on an orbital shaker to induce cell lysis. 7. The plate was incubated at room temperature for 20 minutes to stabilize the luminescence signal. 8. Luminescence was recorded and reported in graphs as RLU=relative luminescence units. Alternatively, cells were seeded at optimal density in a 96 well plate and incubated for 4 days in the presence of test compound. Alamar BlueTM was subsequently added to the assay medium, and cells were incubated for 6 h before reading at 544 nm excitation, 590 nm emission. EC50 values were calculated using a sigmoidal dose response curve fit.
row,Structure (SMILES),EC50 [nM]
1,"CCNC(=O)Nc1ccc(-c2nc3c(c(N4CCOC[C@@H]4C)n2)COC(CO)C3)cc1 (stereo partly drawn) [1-ethyl-3-(4-(7-(hydroxymethyl)-4-((S)-3-methylmorpholino)-7,8-dihydro-5H-pyrano[4,3-d]pyrimidin-2-yl)phenyl)urea]",445
2,"CC[C@H]1COCCN1c1nc(-c2ccc(NC(=O)NC3COC3)cc2)nc2c1COCC2 [Example 6, (S)-1-(4-(4-(3-ethylmorpholino)-7,8-dihydro-5H-pyrano[4,3-d]pyrimidin-2-yl)phenyl)-3-(oxetan-3-yl)urea]",180
3,"C=CC[C@@]1(C)OCc2c(N3CCOCC3)nc(-c3ccc(NC(=O)NCC)cc3)nc21 [Example 73 eb (R), (R)-1-(4-(7-allyl-7-methyl-4-morpholino-5,7-dihydrofuro[3,4-d]pyrimidin-2-yl)phenyl)-3-ethylurea]",96.1
4,"C=CC[C@@]1(C)OCc2c(N3C[C@H]4CC[C@@H](C3)O4)nc(-c3ccc(NC(=O)NCC)cc3)nc21 [Example 74 eh (R), 1-(4-((R)-7-allyl-4-((1R,5S)-8-oxa-3-azabicyclo[3.2.1]octan-3-yl)-7-methyl-5,7-dihydrofuro[3,4-d]pyrimidin-2-yl)phenyl)-3-ethylurea]",95
5,"C=CC[C@]1(C)OCc2c(N3C[C@H]4CC[C@@H](C3)O4)nc(-c3ccc(NC(=O)NCC)cc3)nc21 [Example 74 eh (S), 1-(4-((S)-7-allyl-4-((1R,5S)-8-oxa-3-azabicyclo[3.2.1]octan-3-yl)-7-methyl-5,7-dihydrofuro[3,4-d]pyrimidin-2-yl)phenyl)-3-ethylurea]",153
6,"CCC[C@@]1(C)OCc2c(N3C[C@H]4CC[C@@H](C3)O4)nc(-c3ccc(NC(=O)NCC)cc3)nc21 [Example 74 ej (R), 1-(4-((R)-4-((1R,5S)-8-oxa-3-azabicyclo[3.2.1]octan-3-yl)-7-methyl-7-propyl-5,7-dihydrofuro[3,4-d]pyrimidin-2-yl)phenyl)-3-ethylurea]",19
7,"CCC[C@]1(C)OCc2c(N3C[C@H]4CC[C@@H](C3)O4)nc(-c3ccc(NC(=O)NCC)cc3)nc21 [Example 74 ej (S), 1-(4-((S)-4-((1R,5S)-8-oxa-3-azabicyclo[3.2.1]octan-3-yl)-7-methyl-7-propyl-5,7-dihydrofuro[3,4-d]pyrimidin-2-yl)phenyl)-3-ethylurea]",51
8,"CCNC(=O)Nc1ccc(-c2nc(N3CCOC[C@@H]3C)c3c(n2)[C@@](C)(CCCO)OC3)cc1 [Example 75 el (R), 1-ethyl-3-(4-((R)-7-(3-hydroxypropyl)-7-methyl-4-((S)-3-methylmorpholino)-5,7-dihydrofuro[3,4-d]pyrimidin-2-yl)phenyl)urea]",322
9,"CCNC(=O)Nc1ccc(-c2nc(N3CCOC[C@@H]3C)c3c(n2)[C@](C)(CCCO)OC3)cc1 [Example 75 el (S), 1-ethyl-3-(4-((S)-7-(3-hydroxypropyl)-7-methyl-4-((S)-3-methylmorpholino)-5,7-dihydrofuro[3,4-d]pyrimidin-2-yl)phenyl)urea]",62
10,"CCNC(=O)Nc1ccc(-c2nc(N3CCOCC3C)c3c(n2)C(C)(CCOc2ccccc2)OC3)cc1 (stereo not shown) [Example 91 ft^1, 1-ethyl-3-(4-(7-methyl-4-(3-methylmorpholino)-7-(2-phenoxyethyl)-5,7-dihydrofuro[3,4-d]pyrimidin-2-yl)phenyl)urea]",297
11,CCNC(=O)Nc1ccc(-c2nc(N3CCOC[C@@H]3C)c3c(n2)[C@](C)(CCOc2ccncc2)OC3)cc1 [Example 92 fu^1],238
12,"CCNC(=O)Nc1ccc(-c2nc3c(c(N4C[C@H]5CC[C@@H](C4)O5)n2)COC3)cc1 [Example 99, 1-(4-(4-(8-oxa-3-azabicyclo[3.2.1]octan-3-yl)-5,7-dihydrofuro[3,4-d]pyrimidin-2-yl)phenyl)-3-ethylurea]",154
